Results published in paper PMC3276500, “Caffeic Acid Phenethyl Ester and Its Amide Analogue Are Potent Inhibitors of Leukotriene Biosynthesis in Human Polymorphonuclear Leukocytes” (PLoS ONE, 2012).

Molecular target: T1, 5-lipoxygenase (5-LO) (Homo sapiens, UniProt P09917)
T1 construct: gene ALOX5
T1 sequence (P09917 1-674): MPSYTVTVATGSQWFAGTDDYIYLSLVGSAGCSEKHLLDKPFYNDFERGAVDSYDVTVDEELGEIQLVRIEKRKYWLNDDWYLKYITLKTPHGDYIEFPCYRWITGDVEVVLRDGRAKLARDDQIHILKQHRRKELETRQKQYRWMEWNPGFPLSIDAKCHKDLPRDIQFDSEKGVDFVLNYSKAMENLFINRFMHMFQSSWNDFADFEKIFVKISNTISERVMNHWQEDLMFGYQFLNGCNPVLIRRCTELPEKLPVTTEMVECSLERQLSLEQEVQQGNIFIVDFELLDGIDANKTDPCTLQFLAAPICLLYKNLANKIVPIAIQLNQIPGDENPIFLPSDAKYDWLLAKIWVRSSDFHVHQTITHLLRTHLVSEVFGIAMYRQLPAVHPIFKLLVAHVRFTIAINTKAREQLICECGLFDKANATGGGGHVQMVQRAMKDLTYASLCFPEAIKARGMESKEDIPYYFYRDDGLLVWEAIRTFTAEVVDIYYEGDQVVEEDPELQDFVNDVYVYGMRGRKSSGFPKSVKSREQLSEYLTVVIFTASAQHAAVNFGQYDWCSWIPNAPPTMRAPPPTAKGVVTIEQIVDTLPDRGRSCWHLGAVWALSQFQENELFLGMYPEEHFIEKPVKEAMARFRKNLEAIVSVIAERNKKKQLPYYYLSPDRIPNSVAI
Test: cell-free 5-LO activity assay in lysate supernatant of HEK293 cells stably transfected with 5-LO, RP-HPLC of products
Assay type: biochemical

| Structure (SMILES) | IC50 |
| --- | --- |
| O=C(/C=C/c1ccc(O)c(O)c1)OCCc1ccccc1 [compound 1, CAPE] | 0.13 µM |
| O=C(/C=C/c1ccc(O)c(O)c1)NCCc1ccccc1 [compound 9] | 2.38 µM |
